Where “and” joins values, the source holds several entries; their conditions need not be identical. Equal entries are not always repeated.
Key:
[1] = system: Conjunctival goblet cells; assay: Conjunctival goblet cell proliferation, WST-8 assay (Example 1); format: cell-based, rat; settings: NGF 1 nM (FIG. 4), 24 hours
Experimental: Cells derived from the explants were grown in RPMI 1640 supplemented with 10% fetal bovine serum (FBS) and penicillin (100 U/mL)/streptomycin (100 μg/mL) at 37° C. in a humidified 5% CO2-atmosphere for seventy-two hours. Contaminating nongoblet cells were removed by scraping them from the plate. During this time, goblet cells migrated from the pieces and began to proliferate. After one week, the goblet cells were trypsinized and plated in twenty-four well culture plates with RPMI-1640 media supplemented with 10% FBS.
Conjunctival goblet cells were grown to subconfluence in 24-well culture plates and then serum deprived for twenty-four hours. […] CGC proliferation was determined with a colorimetric nonradioactive, WST-8 proliferation assay that measures the number of cells. This procedure employs the 2-(2-methoxy-4-nitrophenyl)-3-(4-nitrophenyl)-5-(2,4-disulfophenyl)-2H-tetrazolium, monosodium salt (WST-8), which is cleaved by viable, growing mitochondria to form a dark blue formazan product that is detected by a fluorescence ELISA reader (Bio-Tek, Winooski, Vt.) at 460 nm.
Data for CGC glycoconjugate secretion and proliferation were expressed as the increase (x-fold) above basal value, which was standardized to 1.0. For example, for the 0.3 μM (micromolar), 1 μM and 10 μM doses, the CGC glycoconjugate secretion and proliferation were expressed as test compound over untreated cells. […]

[2] = system: cultured rat conjunctival goblet cells; assay: Goblet cell glycoconjugate secretion, ELLA with UEA-1 (Example 2); format: cell-based; settings: 2 hours; for Glycoconjugate Secretion, Mean ± sem: mean of rats; for Glycoconjugate Secretion, Mean ± SD: mean of rats/plates
Experimental: The culturing of conjunctival goblet cells from explant cultures was as previously described in Shatos, M. et al., “Isolation, Characterization, and Propagation of Rat Conjunctival Goblet Cells In Vitro,” IOVS 42:1455-1464 (2001), the entire content of which is incorporated herein by reference. The tissue was finely minced and individual pieces were anchored onto scored 6-well cultures dishes in 0.5 mL of complete RPMI-1640 (supplemented with 10% FBS, 2 mM glutamine and 100 μg/mL penicillin-streptomycin) and incubated at 37° C. in a humidified 5% CO2-atmosphere. Explant cultures were refed every 2 days. Within a few days, goblet cells migrated from the pieces and began to proliferate. After approximately one week, the tissue plugs were removed and the goblet cells were allowed to grow to confluence. Cells were passaged once by trypsinization of adherent cells with 0.05% trypsin-0.53 mM EDTA (pH 7.4), and plated in 8-well Laboratory Tek chamber slides (histochemistry) or in 96 well (proliferation), 24 well (secretion), or 6 well (western blots) culture plates with complete RPMI-1640 media.
To measure cell secretion, goblet cells were grown to confluence and then serum depleted for 2 hours prior to stimulation. Cells were incubated with compound D3 at 2, 10, and 50 μM, NGF at 0.1, 1 and 10 nM, and PMA at 0.1, 1, and 10 nM in serum-free RPMI for 2 hours. Goblet cell secretion was measured using an enzyme-linked lectin assay (ELLA). Briefly, an aliquot of the cell culture supernatant was transferred to a 96-well polystyrene microtiter plate in triplicate (Corning Life Sciences #2592, Fisher Scientific, Nepean, Ont). A dilution series of bovine submaxillary mucin (BSM) (Sigma, St. Louis, Mo.) was included on each plate as the standard (standard curve data and data showing that detection of BSM is linear between 0.003 and 0.1 μg not shown). The plates were coated by evaporation at 37° C. overnight. After, the plates were washed three times with wash buffer [PBS containing 0.3% BSA, 0.05% Tween-20] then blocked for nonspecific binding with PBS containing 3% BSA and 0.05% Tween-20 at 37° C. for 1 hour. The wells were rinsed three times in wash buffer, and then incubated in 2 μg/mL biotinylated UEA-1 diluted in wash buffer (Vector Labs, Burlingame, Calif.) at 37° C. for 1 hour. The wells were rinsed three times in wash buffer, and then incubated in 1 μg/mL HRP-conjugated neutravidin diluted in wash buffer (Pierce, Rockford, Ill.) at 37° C. for 1 hour. After the wells were rinsed three times in wash buffer, the color development was performed with TMB (Promega, Madison, Wis.) and stopped with 0.5N Sulfuric acid. The absorbance was read at 450 nm on a Benchmark Plus (Biorad). The goblet cells remaining in the culture wells were either scraped in RIPA buffer [1% TritonX-100, 20 mM Tris-HCl pH 7.5, 150 mM NaCl, 1.5 mM MgCl2, 1% Na deoxycholate, 1 mM EGTA, 1 mM EDTA, 0.1% SDS, 10% glycerol, 1 mM Na vanadate, 10 mM Na fluoride, 10 mM Na pyrophosphate, complete mini EDTA-free protease inhibitors (Roche Applied Science, Indianapolis, Ind.)] or 1M Tris-buffer (pH 7.5), collected and sonicated. The amount of protein in the cell homogenate was analyzed using the Bradford protein assay kit using a dilution series of bovine serum albumin (BSA) as the standard (BioRad, Montreal, PQ). Glycoconjugate secretion was normalized to total protein in the homogenate. Data was then expressed as fold increase above basal. […]

[3] = system: Scopolamine Induced Rat Dry Eye Model; assay: Scopolamine induced rat dry eye model, Schirmer test (Example 5); format: in vivo; settings: ± SD

Substance: NGF: nerve growth factor (recombinant human), positive control
- CGC proliferation [1]: 1.6±0.3 fold above basal
- Glycoconjugate Secretion ([2]; 0.1 nM, Rat 1): 1.49 Fold increase above basal
- Glycoconjugate Secretion ([2]; 0.1 nM, Rat 1 Plate 1): 7.6 μg glycoconjugate/mg total protein
- Glycoconjugate Secretion ([2]; 0.1 nM, Rat 2): 1.20 Fold increase above basal
- Glycoconjugate Secretion ([2]; 0.1 nM, Rat 2 Plate 1): 2.4 μg glycoconjugate/mg total protein
- Glycoconjugate Secretion ([2]; 0.1 nM, Rat 3): 0.94 Fold increase above basal
- Glycoconjugate Secretion ([2]; 0.1 nM, Rat 3 Plate 1): 4.6 μg glycoconjugate/mg total protein
- Glycoconjugate Secretion ([2]; 0.1 nM, Rat 4): 1.24 Fold increase above basal
- Glycoconjugate Secretion ([2]; 0.1 nM, Rat 4 Plate 1): 10.6 μg glycoconjugate/mg total protein
- Glycoconjugate Secretion, Mean ± sem ([2]; 0.1 nM): 1.22 ± 0.11 Fold increase above basal
- Glycoconjugate Secretion, Mean ± SD ([2]; 0.1 nM): 6.3 ± 3.6 μg glycoconjugate/mg total protein
- Glycoconjugate Secretion ([2]; 1 nM, Rat 1): 2.67 Fold increase above basal
- Glycoconjugate Secretion ([2]; 1 nM, Rat 1 Plate 1): 13.6 μg glycoconjugate/mg total protein
- Glycoconjugate Secretion ([2]; 1 nM, Rat 2): 0.85 Fold increase above basal
- Glycoconjugate Secretion ([2]; 1 nM, Rat 2 Plate 1): 1.7 μg glycoconjugate/mg total protein
- Glycoconjugate Secretion ([2]; 1 nM, Rat 3): 1.00 Fold increase above basal
- Glycoconjugate Secretion ([2]; 1 nM, Rat 3 Plate 1): 4.9 μg glycoconjugate/mg total protein
- Glycoconjugate Secretion ([2]; 1 nM, Rat 4): 1.26 Fold increase above basal
- Glycoconjugate Secretion ([2]; 1 nM, Rat 4 Plate 1): 10.8 μg glycoconjugate/mg total protein
- Glycoconjugate Secretion, Mean ± sem ([2]; 1 nM): 1.44 ± 0.42 Fold increase above basal
- Glycoconjugate Secretion, Mean ± SD ([2]; 1 nM): 7.8 ± 5.4 μg glycoconjugate/mg total protein
- Glycoconjugate Secretion ([2]; 10 nM, Rat 1): 1.58 Fold increase above basal
- Glycoconjugate Secretion ([2]; 10 nM, Rat 1 Plate 1): 10.4 μg glycoconjugate/mg total protein
- Glycoconjugate Secretion ([2]; 10 nM, Rat 1 Plate 2): 4.4 μg glycoconjugate/mg total protein
- Glycoconjugate Secretion ([2]; 10 nM, Rat 2): 1.49 Fold increase above basal
- Glycoconjugate Secretion ([2]; 10 nM, Rat 2 Plate 1): 3.6 μg glycoconjugate/mg total protein
- Glycoconjugate Secretion ([2]; 10 nM, Rat 2 Plate 2): 2.7 μg glycoconjugate/mg total protein
- Glycoconjugate Secretion ([2]; 10 nM, Rat 3): 1.98 Fold increase above basal
- Glycoconjugate Secretion ([2]; 10 nM, Rat 3 Plate 1): 9.7 μg glycoconjugate/mg total protein
- Glycoconjugate Secretion ([2]; 10 nM, Rat 4): 1.19 Fold increase above basal
- Glycoconjugate Secretion ([2]; 10 nM, Rat 4 Plate 1): 10.2 μg glycoconjugate/mg total protein
- Glycoconjugate Secretion, Mean ± sem ([2]; 10 nM): 1.55±0.18 Fold increase above basal
- Glycoconjugate Secretion, Mean ± SD ([2]; 10 nM): 6.8 ± 3.6 μg glycoconjugate/mg total protein
- Schirmer's Test ([3]; 0.00053% group, Day 2, before treatment start (day 5)): 9.9 ± 4.9 mm and 9.9 ± 4.8 mm
- Schirmer's Test ([3]; 0.00053% group, Day −1, presurgical, before treatment start (day 5)): 11.2 ± 3.7 mm and 11.2 ± 3.2 mm
- Schirmer's Test ([3]; 0.00053% topical 1× daily Days 5-21, Day 20): 7.1 ± 2.4 mm

From patent US9707267B2, “Beta-turn peptidomimetic cyclic compounds for treating dry eye” (Mimetogen Pharmaceuticals, Inc., priority 2008, dated 2017)
